Molecules are shown by their SMILES. Converted amounts (≈) assume the structure as drawn. Read-outs that look alike come from different tables or passages of the source.

The source of these data is patent publication US20210388012A1, “METHODS AND COMPOSITIONS FOR PRODRUG FORMS OF SPECTINOMYCIN AND SPECTINAMIDE ANALOGS” (priority 2018, published 2021).

In data set [1] the test system is M. tuberculosis Erdman (TMCC107). The data set can be described thus: Murine model of acute TB infection. In kind it is in vivo. Particulars: BALB/c mice, subcutaneous injection 400 mg/kg daily, 12 consecutive days.
The nature of data set [2]: Single ascending maximum tolerated dose study in rat. Particulars: female, Sprague-Dawley, rat, in vivo, iv. In kind it is in vivo. As to the method:
Several compounds were assessed in single ascending maximum tolerated studies. The compounds assessed were 1810; 3408, a prodrug form of compound 1810; 1599, a chloro homologue of compound 1810; and gentamicin, an antimicrobial associated with ototoxicity. The study was carried out in female Sprague-Dawley rats (n=3 per group). All the drug solutions were prepared in water and PLASMA-LYTE A (50:50; […] was obtained from Baxter Healthcare Corporation, Deerfield, Ill.). Each group of rats were fasted overnight with access to water aJ libitum and a fixed volume (2 mL) of drug-containing solution was administered via the jugular vein catheter. Food was withheld for 3 h post dosing. Different phases of the study were classified on five different speeds of i.v, administration; Phase 1: 5 sec, Phase 2: 30 sec, Phase 3: 5 min, Phase 4: 15 min, Phase 5: 30 min. In the first and second phases, a set of predefined dose levels: 10, 25, 50, 75, 100, 150, 300, 350, 400, 450 and 500 mg/kg. Escalation to the next higher dose was conditional upon absence of signs of acute toxicity following the immediate lower dose over a 24 h period. All animals were monitored by visual inspection focused on focus on changes in skin, fur, eyes, and also respiratory, circulatory, autonomic and central nervous systems, along with somatomotor activity and behavior pattern, including tremors, convulsions, salivation, diarrhea, lethargy, sleep and coma. A dose level was deemed an MTD if […] of acute toxicity were observed and that dose was chosen for the second phase of the study where the process was repeated to determine a toxic dose. For third, fourth and fifth phases, dosing solution was infused by a Instech tethering system (Instech Laboratories Inc., Plymouth Meeting, Pa.) where the animal is freely moving within its cage, the catheter connection is held in place by a vascular access harness and a swivel system, and the drug administration is performed via a Harvard Apparatus programmable syringe pump. After dosing, the tether was removed immediately after completion of the infusion and the catheter was flushed with (100 μL) PlasmaLyte A. Surviving animals from the previous dose with no signs of toxicity were re-used in either phases of these studies upon allowing a one day drug washout period.

The subject of another data set is M. tuberculosis H37Rv. The data set can be described thus: Minimum inhibitory concentration (MIC), microbroth dilution. In kind it is cell-based. Particulars: Mycobacterium tuberculosis, 168 h; M. tuberculosis H37Rv, 7 days, 37° C.; read-out: MIC (H37Rv).
Data set [3] concerns the target Mycobacterium smegmatis 70S bacterial ribosomes. The data set can be described thus: Ribosomal inhibition assay (luciferase-based protein synthesis inhibition). The format is biochemical. Particulars: purified M. smegmatis 70S ribosomes, firefly luciferase mRNA. Here is the method:
In vitro activity was also assessed using a ribosomal inhibition assay. Briefly, luciferase-based protein synthesis inhibition assays were performed in translation reaction as described previously (Bruell, et al. Biochemistry. 2008 47 (34), 8828-8839), using purified Mycobacterium smegmatis 70S bacterial ribosomes and firefly luciferase mRNA prepared in vitro using T7 RNA polymerase. IC50 values represent the drug concentration that inhibits luciferase activity by 50%.

The nature of data set [4]: Pharmacokinetic study in rat. Conditions: male, Sprague-Dawley, in vivo, iv, 10 mg/kg. In kind it is in vivo, Sprague-Dawley rats. As to the method: LC-MS Method 1. Quantitative determination of the amount of a disclosed compound present in blood, plasma, or urinary can be determined by LC-MS/MS methods. Briefly, a suitable method involves use of calibrants (0.976, 1.95, 3.91, 7.81, 15.63, 31.25, 62.5, 125, 250, 500, 1000 ng/mL) were in sample matrix (e.g., rat plasma, blood or urine). A separate solution of disclosed compound (independent of calibrants) is used to prepare quality controls. Appropriate volumes of working solutions are added to the sample matrix to yield the final concentrations of 1, 50, 1000 ng/mL. Linearity for calibrants in duplicate is assessed by subjecting the spiked concentrations and the respective peak areas to least-square linear regression analysis with and without intercepts, and a weighted least-square regression (1/x or 1/x^2). The lowest limit of quantitation (LLOQ) in the standard curve measured with acceptable accuracy and precision for a disclosed compound from rat plasma has been previously established as 0.976 ng/mL for a representative compound, 1810. All samples are precipitated by the addition of 4-volumes (100 μL) of IS, 1369 (10 ng/mL) in methanol to a volume (25 μL) of plasma/urine test sample. The samples are vortexed (Fisher scientific, USA) for 30 sec and centrifuged at 10,000×g for 10 min at 4° C. and the supernatants are collected for LC-MS/MS analysis. Chromatographic separation is carried out using a Shimadzu Nexera XR (LC-20ADXR) liquid chromatograph (Shimadzu Corporation, USA) consisting of two pumps, online degasser, system controller and an auto sampler. Mobile phase consisting of a) water with 1.6% nonafluoropentanoic acid and 0.7% formic acid b) 90% acetonitrile with 0.8% nonafluoropentanoic acid and 0.35% formic acid can be used at a flow rate of 0.5 rnLirnin in gradient mode. A Waters® Symmetry ® 3.5μ C8, 50×2.1 mm column (Waters, Milford, Mass.) is used for the separation. Samples (5 μL) are injected on column and the eluate is provided directly to an API 5500 triple quadruple mass spectrometer (Applied Biosystems, Foster City, Calif.) equipped with a turbospray ion source operated in the positive ion mode. The optimized multiple reactions monitoring (MRM) conditions for 3408 (549.2A207.1), 1810 (469.2^207.1) and IS (418.3^207.1) are monitored with a declustering potential of 45 V and collision energy of 25 eV. Data are acquired and processed with Analyst software version 1.6.2 (Applied Biosystems, Foster City, Calif.).
Pharmacokinetic assessment of the disclosed compounds can be determined in a rat model as described herein. Briefly, catheterized male Sprague-Dawley rats from Harlan Bioscience (Indianapolis, Ind.), weighing 200-250 g, are kept at a 12 h light/dark cycle with access to food and water ad libitum. The procedures are approved by the Institutional Animal Care and Use Committee of the University of Tennessee Health Science Center. Formulations of a disclosed compound are prepared in water (50%) and PlasniaLyte A (50%). Test compound can be administered either via intravenous route (10 mg/kg) via femoral vein catheter with the study conducted using a group of 6 rats. Blood (250 μL) was collected via the jugular vein catheter at 0.08, 0.25, 0.5, 0.75, 1, 1.5, 2, 4, 6, 8, 10, 24 and 48 h after drug administration. Plasma was immediately separated by centrifugation (6,000×g for 10 min at 4° C.) and stored at −70° C. until analysis. The plasma concentration was determined as described herein above in LC-MS Method 1, and plasma concentration-time courses were fitted to a non-compartmental model using Phoenix WinNonlin 7.0 (Certara L. P., Princeton, NJ). Area under the concentration-time profile curve (AUC) was calculated by the log trapezoidal rule by log-linear regression and extrapolated to infinity by addition of the value Ct/λZ, where Ct is the concentration at the last time point, and λZ the terminal slope (determined by linear regression) of the log concentration-time curve. […]

The term MTD denotes the highest dose tested that stayed within the study's limit of toxicity. For orientation: MIC means the least concentration at which growth counts as inhibited. Usually AUC stands for concentration integrated over time. Read a high AUC as high exposure. Broadly, the Cmax is the highest concentration seen after dosing. As a reminder, the Vss is the apparent volume that relates the amount in the body to the concentration in plasma or blood. Broadly, the t½ is how long it takes for the measured level to halve. `CN[C@@H]1[C@H](O)[C@H](NC)[C@H]2O[C@]3(O)[C@H](O[C@@H]2[C@H]1O)O[C@H](C)C[C@H]3NC(=O)Cc1ccc(O)cn1` [Compound 1810, 2-(5-hydroxypyridin-2-yl)-N-((2R,4R,4aS,5aR,6S,7S,8R,9S,9aR,10aS)-4a,7,9-trihydroxy-2-methyl-6,8-bis(methylamino)decahydro-2H-benzo[b]pyrano[2,3-e] [1,4]dioxin-4-yl)acetamide]: in data set [1], the “Efficacy in mouse model of acute tuberculosis infection (lung CFU, FIG. 1)” value is recorded as “similarly active”. Besides, the MTD at 24 h in data set [2] lay within 200 to 350 mg/kg. Further, in data set [2] (female Sprague-Dawley rats, 5 second IV bolus, read-out: MTD), the MTD at 24 h turned out to be 200 mg/kg. Also, the MTD at 24 h in data set [2] (female Sprague-Dawley rats, 30 second IV bolus, read-out: MTD) was 200 mg/kg. Besides, in data set [2] (female Sprague-Dawley rats, 5 minute IV infusion, read-out: MTD), the MTD at 24 h was 350 mg/kg. The MTD at 24 h in data set [2] (female Sprague-Dawley rats, 15 minute IV infusion, read-out: MTD) is over 500 mg/kg. Further, in the data set with M. tuberculosis H37Rv, the MIC stood at 0.8 µg/mL (≈ 1.71 µM). Also, in data set [3], the “IC50 (M. smegmatis)” value stood at 0.84 µg/mL (≈ 1.79 µM). Besides, in data set [4], the AUC turned out to be 22000 ng·h/mL, the CL was 7.72 mL/min/kg, the Cmax amounted to 47000 ng/mL and the Vss is 0.494 L/kg. For the same compound, the t½ in data set [4] is 23.5 min.
